From PubChem BioAssay AID328 (DTP/NCI, 2004)
Where “and” joins values, the source holds several entries; their conditions need not be identical. Equal values may be shown once. Toxic doses and inconclusive results are not listed.

System: BDF1 mice, P388 leukemia ip, median survival T/C
Assay: NCI In Vivo Anticancer Drug Screen. Data for tumor model P388 Leukemia (intraperitoneal) in B6D2F1 (BDF1) mice
Settings: endpoint: median survival time, higher = longer survival
Procedure, shortened: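 Antitumour effect was judged in vivo: survival in drug-treated mice, normalised to that of vehicle-dosed controls, gives the reported T/C.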

[1] = dose: 50.0 mg/kg/injection, schedule: Q01DX009 (ip), vehicle: saline with Tween-80
[2] = dose: 100.0 mg/kg/injection, schedule: Q01DX009 (ip), vehicle: saline with Tween-80
[3] = dose: 100.0 mg/kg/injection, schedule: Q04DX003 (ip), vehicle: saline with Tween-80
[4] = dose: 200.0 mg/kg/injection, schedule: Q04DX003 (ip), vehicle: saline with Tween-80
[5] = dose: 12.5 mg/kg/injection, schedule: Q01DX009 (ip), vehicle: saline
[6] = dose: 25.0 mg/kg/injection, schedule: Q01DX009 (ip), vehicle: saline

CC1(c2cccs2)C(=O)NC(=O)N1C(=O)CCl (stereo not given)
T/C (dose: 12.5 mg/kg/injection, schedule: Q01DX009 (ip), vehicle: saline with Tween-80): 101 % of control
T/C (dose: 25.0 mg/kg/injection, schedule: Q01DX009 (ip), vehicle: saline with Tween-80): 88 % of control
T/C [1]: 105 % of control
T/C (dose: 50.0 mg/kg/injection, schedule: Q04DX003 (ip), vehicle: saline with Tween-80): 104 % of control
T/C (dose: 75.0 mg/kg/injection, schedule: Q01DX009 (ip), vehicle: saline with Tween-80): 90 % of control
T/C [2]: 106 % of control
T/C [3]: 94 % of control
T/C (dose: 150.0 mg/kg/injection, schedule: Q01DX009 (ip), vehicle: saline with Tween-80): 105 % of control
T/C [4]: 97 % of control

NNC12CC3CC(CC(C3)C1)C2
T/C (dose: 6.25 mg/kg/injection, schedule: Q01DX009 (ip), vehicle: saline): 95 % of control
T/C (dose: 6.25 mg/kg/injection, schedule: Q04DX003 (ip), vehicle: saline): 102 % of control
T/C [5]: 86 % of control
T/C (dose: 12.5 mg/kg/injection, schedule: Q04DX003 (ip), vehicle: saline): 100 % of control
T/C [6]: 86 % of control
T/C (dose: 25.0 mg/kg/injection, schedule: Q04DX003 (ip), vehicle: saline): 98 % of control
T/C (dose: 50.0 mg/kg/injection, schedule: Q04DX003 (ip), vehicle: saline): 115 % of control

CCN(CC)CC(C)Nc1ccc([N+](=O)[O-])c2sc3ccccc3c(=O)c12 (stereo not given)
T/C [3]: 200 % of control
T/C (dose: 132.0 mg/kg/injection, schedule: Q04DX003 (ip), vehicle: saline with Tween-80): 209 % of control and 222 % of control
T/C [4]: 272 % of control and 300 % of control and 195 % of control
T/C (dose: 300.0 mg/kg/injection, schedule: Q04DX003 (ip), vehicle: saline with Tween-80): 109 % of control and 118 % of control
T/C (dose: 400.0 mg/kg/injection, schedule: Q04DX003 (ip), vehicle: saline with Tween-80): 115 % of control

COc1cc2cc(c1Cl)N(C)C(=O)C[C@H](OC(=O)[C@H](C)N(C)C(=O)CC(C)C)[C@]1(C)O[C@H]1[C@H](C)[C@@H]1C[C@@](O)(NC(=O)O1)[C@H](OC)C=C/C=C(\C)C2
T/C (dose: 0.1 micrograms/kg/injection, schedule: Q01DX009 (ip), vehicle: saline + alcohol): 120 % of control
T/C (dose: 0.4 micrograms/kg/injection, schedule: Q01DX009 (ip), vehicle: saline + alcohol): 174 % of control
T/C (dose: 0.8 micrograms/kg/injection, schedule: Q01DX009 (ip), vehicle: saline + alcohol): 158 % of control
T/C (dose: 1.6 micrograms/kg/injection, schedule: Q01DX009 (ip), vehicle: saline + alcohol): 154 % of control
T/C (dose: 3.1 micrograms/kg/injection, schedule: Q01DX009 (ip), vehicle: saline + alcohol): 158 % of control and 165 % of control
T/C (dose: 6.2 micrograms/kg/injection, schedule: Q01DX009 (ip), vehicle: saline + alcohol): 154 % of control and 201 % of control
T/C (dose: 12.5 micrograms/kg/injection, schedule: Q01DX009 (ip), vehicle: saline + alcohol): 177 % of control and 187 % of control
T/C (dose: 25.0 micrograms/kg/injection, schedule: Q01DX009 (ip), vehicle: saline + alcohol): 116 % of control

CC=C=CCN(C)Cc1ccccc1
T/C [5]: 120 % of control
T/C [6]: 100 % of control
T/C (dose: 50.0 mg/kg/injection, schedule: Q01DX009 (ip), vehicle: saline): 105 % of control and 109 % of control

C[C@]12CC[C@H](O)C=C1CC[C@@H]1[C@@H]2CC[C@]2(C)C(c3ccc(=O)oc3)CC[C@]12O (stereo not given in full)
T/C (dose: 6.25 mg/kg/injection, schedule: Q01DX009 (ip), vehicle: Klucel (hydroxypropylcellulose) (HPC)): 96 % of control
T/C (dose: 12.5 mg/kg/injection, schedule: Q01DX009 (ip), vehicle: Klucel (hydroxypropylcellulose) (HPC)): 86 % of control

CC(C(=O)c1ccc(Br)cc1)C(Br)c1ccccc1 (stereo not given)
T/C [1]: 90 % of control
T/C [2]: 113 % of control
T/C (dose: 100.0 mg/kg/injection, schedule: Q04DX003 (ip), vehicle: saline): 88 % of control
T/C (dose: 200.0 mg/kg/injection, schedule: Q01DX009 (ip), vehicle: saline with Tween-80): 88 % of control
T/C (dose: 200.0 mg/kg/injection, schedule: Q04DX003 (ip), vehicle: saline): 99 % of control
T/C (dose: 400.0 mg/kg/injection, schedule: Q01DX009 (ip), vehicle: saline with Tween-80): 97 % of control
T/C (dose: 400.0 mg/kg/injection, schedule: Q04DX003 (ip), vehicle: saline): 91 % of control

OCC1OC(n2cnc3c(=S)nc[nH]c32)C(O)C1O (stereo not given)
T/C (dose: 20.0 mg/kg/injection, schedule: Q01DX010 (ip), vehicle: saline): 90 % of control
T/C (dose: 40.0 mg/kg/injection, schedule: Q01DX010 (ip), vehicle: saline): 100 % of control
T/C (dose: 80.0 mg/kg/injection, schedule: Q01DX010 (ip), vehicle: saline): 100 % of control
T/C (dose: 160.0 mg/kg/injection, schedule: Q01DX010 (ip), vehicle: saline): 95 % of control
